The conditions of series [1]: intramuscular and intravenous routes; cited from earlier work.
The test system of series [2] is Pneumocystis carinii. Put plainly: Treatment of Pneumocystis carinii pneumonia in Sprague-Dawley rats (extent of disease by histologic score). The conditions noted are these: for Extent of Disease by Histologic Score: number of animals with score 2: 5-10% lung involved or small foci of infection. Type of series: in vivo, male Sprague-Dawley rats.
Series [3] in a line: Toxicity of amidines in rats (standard laboratory procedure). Type of series: in vivo. The conditions noted are these: dose as in value; else not given in Table XIII (10 mg/kg test dose).
In series [4] the test system is Pneumocystis carinii. The conditions noted are these: in vivo; cited from earlier work.

Turning to `N=C(N)c1ccc(OCCCCCOc2ccc(C(=N)N)cc2)cc1` [pentamidine isethionate], the “Side effects / toxicity in patients” value in series [1] is “Some fatalities have been attributed to severe hypotension, hypoglycemia, and cardiac arrhythmias”.

With `N=C(N)c1ccc(OCCCCCOc2ccc(C(=N)N)cc2)cc1` [Example 12, Pentamidine, reference compound], the “Extent of Disease by Histologic Score: number of animals with score 0.5” value with Pneumocystis carinii [2] (0.1 mg/kg, 0.5 = <10 cysts found per 2 sections) is listed as 0 animals; in the series with Pneumocystis carinii [2] (1 mg/kg, 0.5 = <10 cysts found per 2 sections), 1 animals. Moreover, the “Extent of Disease by Histologic Score: number of animals with score 1” value is listed as 0 animals in the series with Pneumocystis carinii [2] (0.1 mg/kg, 1 = scattered cysts, <5% of lung involved) and 0 animals in the series on Pneumocystis carinii [2] (1 mg/kg, 1 = scattered cysts, <5% of lung involved). Moreover, the “Extent of Disease by Histologic Score: number of animals with score 2” value in the series with Pneumocystis carinii [2] (0.1 mg/kg, 2 = scattered cysts) came to 0 animals; with Pneumocystis carinii [2] (1 mg/kg, 2 = scattered cysts) it was 3 animals. Besides, the “Extent of Disease by Histologic Score: number of animals with score 3” value with Pneumocystis carinii [2] (0.1 mg/kg, 3 = scattered cysts, 10-50% of lung involved) turned out to be 7 animals; in the series with Pneumocystis carinii [2] (1 mg/kg, 3 = scattered cysts, 10-50% of lung involved) it was 5 animals. Also, the “Extent of Disease by Histologic Score: number of animals with score 4” value in the series with Pneumocystis carinii [2] (0.1 mg/kg, 4 = >50% of lung involved) was found to be 5 animals; in the series on Pneumocystis carinii [2] (1 mg/kg, 4 = >50% of lung involved), 3 animals; with Pneumocystis carinii [2] (10 mg/kg i.v. daily, 14 days, 4 = >50% of lung involved with many intense areas of focal infection) it was 0 animals. The “Extent of disease by histologic score (combined): number of animals in scoring group 0.5” value with Pneumocystis carinii [2] (Table XII composite, 10 mg/kg, 0.5 = <10 cysts found per 2 sections) stood at 20 animals. Further, the “Extent of disease by histologic score (combined): number of animals in scoring group 1” value in the series on Pneumocystis carinii [2] (Table XII composite, 10 mg/kg, 1 = scattered cysts, <5% of lung involved) came out at 26 animals. The “Extent of disease by histologic score (combined): number of animals in scoring group 2” value with Pneumocystis carinii [2] (Table XII composite, 10 mg/kg, 2 = scattered cysts, 5-10% of lung involved) is 12 animals. Further, the “Extent of disease by histologic score (combined): number of animals in scoring group 3” value in the series on Pneumocystis carinii [2] (Table XII composite, 10 mg/kg, 3 = scattered cysts, 10-50% of lung involved) was found to be 2 animals. In the series with Pneumocystis carinii [2] (Table XII composite, 10 mg/kg, 4 = >50% of lung involved), the “Extent of disease by histologic score (combined): number of animals in scoring group 4” value amounted to 0 animals. Further, the “Toxicity of amidines: Effect” value in series [3] is on record as “Some hypotension, edematous tails”. Moreover, the “Known effectiveness against Pneumocystis carinii pneumonia” value with Pneumocystis carinii [4] is “effective in the treatment of, or prophylaxis against Pneumocystis carinii pneumonia”.
